In publication PMC2781551, “Antibody Complementarity-Determining Regions (CDRs): A Bridge between Adaptive and Innate Immunity” (PLoS ONE, 2009):

Key:
Assay type in all cases: cell-based, mouse (Balb/c)
murine splenocytes = assay: Cytokine production by unfractionated spleen cells (ELISA); details: 10 µg/ml, 18 h, 10×10^6 cells/ml, ELISA of supernatants, data not shown
Experimental: (§1) Unfractionated spleen cells (10×10^6/ml), recovered from Balb/c mice, were cultured in the presence or absence of mAb HuA and mAb MoA CDR peptides, LPS or NC (all 10 µg/ml) for 18 h in RPMI-1640 plus 10% FCS (complete medium) at 37°C and 5% CO2. After incubation, the supernatants were collected and tested for TNF-α and IL-6 levels by specific ELISA assays (Biosource, Camarillo, CA, USA). In selected experiments, PM (5×10^6/ml) were cultured as above described. After incubation, the supernatants were collected and tested for TNF-α and IL-6 levels by specific ELISA assays (Biosource). PM (5×10^6/ml) were cultured in the presence or absence of mouse VHCDR3, LPS, NC or SP (all at 10 µg/ml) for 1 or 18 h in complete medium at 37°C and 5% CO2. PM (5×10^6/ml) were cultured as above described in the presence or absence of wortmannin (4 nM) or SB203580 (0,2 µM) (both from Sigma). After incubation, the supernatants were collected and tested for TNF-α level by specific ELISA assays (Biosource). In selected experiments, PM (5×10^6/ml) were cultured in the presence or absence of VHCDR3, LPS, NC, SP and nine VHCDR3 alanine-substituted derivatives (all at 10 µg/ml) for 18 h in complete medium at 37°C and 5% CO2. After incubation, the supernatants were collected and tested for TNF-α level by specific ELISA assays (Biosource). PMN (5×10^6/ml) were cultured in the presence or absence of mAb MoA CDR peptides, LPS or NC (all 10 µg/ml) for 18 h in complete medium at 37°C and 5% CO2. After incubation, the supernatants were collected and tested for TNF-α and IL-6 levels by specific ELISA assays (Biosource). Cytokine titers were calculated by reference to standard curves, constructed with known amounts of recombinant cytokines.

[1] = test system: peritoneal murine macrophages (PM); assay: Cytokine production by peritoneal macrophages (ELISA); details: 10 µg/ml, 5×10^6 cells/ml
Experimental: DC and CD4^+ T cells were separated from spleens of inbred Balb/c mice using N-418 or L3T4 mAb-conjugated MicroBeads (Miltenyi Biotec, Bergisch Gladbach, Germany), and magnetic separation was performed according to the manufacturer's instruction. Peritoneal murine neutrophils (PMN) and macrophages (PM) were collected 18 h or 4 days, respectively, after the intraperitoneal injection of 1 ml endotoxin-free 10% thioglycolate solution (Difco).
as §1

IkBα = assay: Phospho-IkBα Western blotting in PM; details: PM 3×10^6/ml, 10 µg/ml, 1 h, Western blot, compared to NC, n = 5
Experimental: After incubation, cells were washed and lysated with Mammalian protein extraction reagent (M-PER) in the presence of protease and phosphatase inhibitors (all from Pierce, Rockford, IL). Protein concentration was determined with a BCA protein Assay Reagent kit (Pierce). The lysates (30 µg of each sample) were separated by sodium dodecyl-sulfate-10% PAGE, transferred to a nitrocellulose membrane (Pierce) for 1 h at 100 V in a blotting system (Bio-Rad) for Western Blot analysis, and the membranes were incubated over-night with rabbit polyclonal Abs to phospho-Akt (pAkt; dilution 1/1000), phospho-IkBα (pIkBα; dilution 1/1000) (all from Cell Signalling Technology, Beverly, MA) and rabbit polyclonal Ab to TLR-4 (dilution 1/200) (Santa Cruz Biotechnology Inc.) in blocking buffer. […] Immunoreactive bands were visualized and quantified by Chemidoc Instrument (Bio-Rad). In particular, a quantitative analysis of the region of interest drawn around the outer edge of the band, was performed based on the guidelines for the use of the Chemidoc Instrument (Bio-Rad). […] All the parallelograms that form a band create one unique three-dimensional solid structure on which the volume is calculated. […]

TNF-α gene = TNF-α gene expression in PM (quantitative RT-PCR); details: PM 1×10^6/ml, 10 µg/ml, qPCR normalized against GADPH, n = 5
Experimental: After incubation, cells were lysed using Trizol reagent (Invitrogen, Carlsbad, CA), and total RNA was extracted. The reverse transcriptase (RT) reaction was performed using Moloney murine leukaemia virus reverse transcriptase (M-MLV RT), as described in the manufacturer's instructions (Invitrogen).
TNF-α, TLR-4, and GADPH clones for use as standards were prepared by PCR from cDNA derived from PM and cloned into p-Drive vector (Qiagen, S.p.A., Milano, Italy). These were verified by sequence analysis. Plasmid DNA was diluted 10-fold and the starting concentration for the dilution series was 10^8 gene copies/µl.
For each target gene, primers were selected using the Beacon Designer software (Bio-Rad, Hercules, CA). Real-time RT-PCR (quantitative RT-PCR) was performed in 96-well PCR plates using the SYBR green (all from BioRad). For real-time PCR reaction 100 ng/µl of reverse-transcribed RNA was used and cDNA was normalized according to GADPH as an internal NC gene. Amplification conditions were the same for TNF-α, TLR-4 and GADPH mRNAs assayed: 3 min at 95°C, 40 cycles of 10 s at 95°C and 30 s at 62°C. For the Melt Curve, the amplification condition was: 1 min at 50°C and 90 cycles of 10 s at 50°C. The experiments were performed using the iCycler IQ Multicolor Real-time PCR Detection System (BioRad).

TLR-4 = TLR-4 expression in PM (flow cytometry); details: PM 1×10^6/ml, 10 µg/ml, 1 h, RPE-labelled mAb to TLR-4, FACScan, representative experiment out of five
Source text: Data are reported as percentage of positive cells. […] Data are expressed as percentage of positive cells.

GQYGNLWFAY [VHCDR3]
IL-6 production by splenocytes (murine splenocytes): increased production
TNF-α production by splenocytes (murine splenocytes): increased production
TNF-α production by PM after 1 h ([1]; 1 h, n = 7): significant increase
TNF-α production by PM ([1]; 18 h, P<0.05 vs untreated): significant up-regulation
IL-6 production by PM ([1]; 18 h, P<0.05 vs untreated, n = 7): significant up-regulation
IkBα phosphorylation (pIkBα normalized against IkBα) (IkBα): increased activation of pIkBα
TNF-α gene expression, 1 and 6 h (TNF-α gene; 1 and 6 h): significant increase
TNF-α gene expression, 18 h (TNF-α gene; 18 h): rapid decline of gene expression
Percentage of TLR-4 positive cells (TLR-4): significant increase
Percentage of TLR-4 positive cells (TLR-4; listed as VH CDR3): 38.1
